Results published in patent US20240325548A1, “DYNAMIC BIOACTIVE SCAFFOLDS AND THERAPEUTIC USES THEREOF AFTER CNS INJURY” (Northwestern University, priority 2021, published 2024).

Tests used:
[1] = test system: hNPCs; test: hNPC attachment, proliferation and phenotype on co-assembled PA coatings (EdU, SOX-2, PAX6); format: cell-based, human
Text: Neural progenitor cells (NPCs) were differentiated from human embryonic stem cells HUES 64 (Harvard University) (see FIG. 2C). In short, 70% confluent stem cell cultures grown in Matrigel (Thermo Fisher) coated plates with mTESR medium (STEMCELL Technologies), were switched to N2B27 medium (50% DMEM: F12, 50% Neurobasal, supplemented with NEAA, Glutamax, N2 and B27; Gibco) containing dual SMAD inhibitors (SB431542, DNSK International and LDN-193189, Tocris) for 12 days to induce the generation of neural progenitors. Neuralization was enhanced by supplementing medium with laminin from day 5 to 12. Next, neural rosettes were dissociated with neural rosette selection reagent (STEMCELL Technologies) to obtain NPCs, which are expanded in N2B27 (Gibco) medium supplemented with bFGF (Millipore). For experimentation in the different PA platforms, NPCs were dissociated with Accutase (Innovative Cell technology), and cultured in the distinct platforms with DMEM: F12+N2+B27 medium with hyclone penicillin-streptomycin (GE Healthcare) and ascorbic acid (0.2 μg/mL; Sigma-Aldrich).
For IKVAV PA treatments, hNPCs were cultured on ornithine coatings (German Glass, Chemglass Life Science) in 6 well and 24 well plates at a density of 500,000 cells/well and 80,000 cells/well respectively. hNPCs were treated with […] of IKVAV PAs ([PA]=6 mM, [KCl]=3 mM, [NaCl]=150 mM) or recombinant laminin protein (10 mg/mL) in solution. IKVAV PA2 and IKVAV PA5 were also mixed with 5 mM CaCl2) at a ratio PA:CaCl2) 6:1 to treat hNPCs. For 2D experiments, hNPCs were cultured on the different IKVAV PAs or laminin coatings in 6 well and 24 well plates at densities mentioned above. For co-assembled experiments, hNPCs were cultured on the different co-assembled PA coatings in 6 well and 24 well plates at a density of 400,000 cells/well and 50,000 cells/well respectively.
hNPCs were fed 4 times a week with DMEM: F12+N2^+B27 medium with hyclone penicillin-streptomycin and ascorbic acid. After 24 h, 72 h 1- or 2-weeks in vitro, cell lysates were harvested or fixed for WB or ICC, respectively. Three replicates per condition and at least three independent experiments were carried out for all conditions investigated.
For the hNPCs proliferation assay, 2 μM of the thymidine analog 5-ethynyl-2′-deoxyuridine (EdU, Thermo Fisher) was incorporated into the culture medium for 24 h. Cells were fixed at the indicated time points in 4% paraformaldehyde (PFA) for 15 min at RT. After fixation, samples were washed in PBS twice and then stained with Click-iT™ EdU Cell Proliferation Kit containing 11 mM CuSO4 (from 50 mM stock) and 1 μg/mL of Alexa Fluor-555 azide (from 0.5 mg/mL, Thermo Fisher) for 30 minutes at RT in the dark. The staining cocktail was then removed, and cells were washed with PBS. Then, hNPCs were counterstained with anti-rabbit SOX-2 antibody following the immunofluorescence protocol described below and 4′, 6-diamidino-2-phenylindole (DAPI, Thermo Fisher) at 5 μg/mL in PBS for 20 min at RT. The cells were then washed with PBS and mounted with Immu-Mount (Fisher Scientific) for imaging.
For immunofluorescence, fixed primary cultures or free-floating tissue sections (40 m Thick) were incubated in blocking buffer containing 0.02% Triton-X (Sigma-Aldrich), 1% NHS (Gibco) and PBS 1× (Gibco). Samples were incubated with primary antibodies over night at 4° C. Alexa-488, Alexa-555 and/or Alexa-647 (1:500, Thermofisher) were used as secondary antibodies. DAPI (1:500, Thermofisher) was used to stain nuclei. […]

[2] = Negative-stain TEM fiber width; format: physicochemical
Description: To prepare the negatively stained TEM specimen, 7 μL of PA sample solution (1 wt % PA prepared in 150 mM NaCl and 3 mM diluted 10 times in MilliQ water) was applied on the shiny side of a glow discharged grid (300 mesh copper with carbon film, Electron Microscopy Sciences), followed by rinsing three times with MilliQ water to remove the excess of salt. The grid was then stained with filtered 2 wt % uranyl acetate aqueous solution and dried in air. TEM imaging was carried out on a JEOL 1230 microscope with a LaB6 filament at 100 kV accelerating voltage, equipped with a Gatan 831 CCD camera. A cold finger was introduced for sample stabilization during imaging.

[3] = Small- and wide-angle X-ray scattering (SAXS/WAXS) of PA nanofibers; format: physicochemical; details: PA nanofibers in solution
Description: Small-angle X-ray scattering (SAXS), medium-angle X-ray scattering (MAXS), a wide-angle X-ray scattering (WAXS) experiments were performed at beamline 5-ID-D of the DuPont-Northwestern-Dow Collaborative Access Team (DND-CAT) Synchrotron Research Center at the Advanced Photon Source, Argonne National Laboratory. 100-150 μL of sample solution ([PA]=1-3 w/v % (˜6-10 mM) in aqueous NaCl and KCl ([NaCl]=150 mM and [KCl]=3 mM)) was introduced into capillary flow-cell with a fixed diameter and irradiated with X-ray for an exposure time of 0.5, 2, 3, or 10 s. Samples were oscillated at a rate of […] in the capillary with a syringe pump during sample measurement to prevent damage due to beam overexposure. Data was collected with an X-ray energy at 17 keV ([…]) with a triple-area detector system. The scattering intensity was recorded in the interval 0.002390<q<4.4578 Å^−1. The wave vector q is defined as =(4π/λ) sin(θ/2), where θ is the scattering angle. The acquired 2D scattering data were then reduced to 1D intensity vs. wavevector plots via azimuthal integration around the beam center in GSAS-II software. Background scattering patterns were obtained from samples containing 150 mM NaCl and 3 mM KCl. This background data was then subtracted from experimental data. All data was analyzed using the Irena software package running on IgorPro software.

C16-A2G2E4GIKVAV [IKVAV PA2]
percentage of proliferating EdU+ and SOX2+ cells [1]: decreased significantly | percentage of neuronal progenitor cells PAX6+ ([1]; one week later): increased percentage | average fiber width [2]: 10.6±0.1 nm | SAXS slope in the Guinier region [3]: −1.2

C16-G4E4GIKVAV [IKVAV PA5]
SAXS slope in the Guinier region [3]: −0.2
